From the supplement of paper PMC11451515

System: SEM cells
Test: cell viability relative to DMSO control; higher = less cytotoxic
Conditions: 48 h
How it was run: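 Viability was expressed as a per-plate percentage of DMSO wells, with cell-free wells as background. Leukemia cells (NOMO1 or SEM at 500 cells/well, P12-Ichikawa at 1000 cells/well) were adapted for at least four passages in each medium and seeded in 1536-well plates (5 μl). Library compounds in DMSO were pin-dosed over an 11-point threefold series from 47 μM to 0.79 nM, and CellTiter-Glo One luminescence was read after 48 h at 37°C.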

N#Cc1ccc(Oc2ccc3c(c2)COB3O)cc1
cell viability [%]
Conditions	HPLM + 10% dialyzed FBS	RPMI 5 mM glucose + 10% FBS	RPMI 5 mM glucose + 10% dialyzed FBS
0.000781 µM	111	105	115
0.00234 µM	122	108	127
0.00702 µM	111	112	119
0.0211 µM	104	92.3	85
0.0632 µM	124	122	126
0.19 µM	114	114	107
0.569 µM	126	115	120
1.71 µM	114	133	129
5.12 µM	117	120	97.3
15.4 µM	105	129	124
46.1 µM	46.4	26.9	38.4
